From PubChem BioAssay AID184 (DTP/NCI, 2004) come the findings set out here.

Several values for one entry are separate records, joined by “and”; a condition that tells them apart may be missing. Equal values may be shown once. Inconclusive results and toxic doses are left out.

The test concerns BALB/cJ mice, ADJ-PC-6 ip tumor, median survival T/C. As to the kind of experiment: NCI In Vivo Anticancer Drug Screen. Data for tumor model ADJ-PC-6 (intraperitoneal) in BALB/cJ mice. Particulars: endpoint: median survival time, higher = longer survival. How it is done:
The antitumor activity of compounds was measured in mice bearing transplantable tumors. Survival or tumor size were measured and the results are expressed as the measurement made in the treated group (T) divided by the measurement made in the vehicle treated control group (C). The tumor model used in this assay is ADJ-PC-6 (intraperitoneal) in BALB/cJ mice

Setting [1] is: dose: 50.0 mg/kg/injection, schedule: Q04DX003 (ip), vehicle: saline with Tween-80.
The mark [2] stands for this setting: dose: 0.25 mg/kg/injection, schedule: Q04DX003 (ip), vehicle: saline.
Where [3] appears, read: dose: 0.5 mg/kg/injection, schedule: Q04DX003 (ip), vehicle: saline.
Setting [4] is: dose: 1.0 mg/kg/injection, schedule: Q04DX003 (ip), vehicle: saline.
The mark [5] stands for this setting: dose: 2.0 mg/kg/injection, schedule: Q04DX003 (ip), vehicle: saline.
Setting [6] is: dose: 12.5 mg/kg/injection, schedule: Q04DX003 (ip), vehicle: saline.
Where [7] appears, read: dose: 25.0 mg/kg/injection, schedule: Q04DX003 (ip), vehicle: saline.

In the case of `CN(C)/N=N/c1nc[nH]c1C(N)=O`, the T/C by setting is: (dose: 50.0 mg/kg/injection, schedule: Q01DX009 (ip), vehicle: saline with Tween-80) 99 % of control; under setting [1], 335 % of control and 471 % of control; (dose: 100.0 mg/kg/injection, schedule: Q01DX009 (ip), vehicle: saline with Tween-80) 110 % of control; (dose: 200.0 mg/kg/injection, schedule: Q01DX009 (ip), vehicle: saline with Tween-80) 105 % of control; (dose: 200.0 mg/kg/injection, schedule: Q04DX003 (ip), vehicle: Klucel (hydroxypropylcellulose) (HPC)) 216 % of control and 275 % of control; (dose: 200.0 mg/kg/injection, schedule: Q04DX003 (ip), vehicle: saline with Tween-80) 335 % of control and 471 % of control. For the same compound, the T/C is, setting by setting: (dose: 400.0 mg/kg/injection, schedule: Q04DX003 (ip), vehicle: Klucel (hydroxypropylcellulose) (HPC)) 275 % of control and 369 % of control; (dose: 400.0 mg/kg/injection, schedule: Q04DX003 (ip), vehicle: saline with Tween-80) 227 % of control and 335 % of control and 471 % of control.
`CO[C@H](C(=O)[C@@H](O)[C@@H](C)O)[C@@H]1Cc2cc3cc(OC4CC(OC5CC(O)C(O)C(C)O5)C(O)C(C)O4)c(C)c(O)c3c(O)c2C(=O)[C@H]1OC1CC(OC2CC(OC3CC(C)(O)C(O)C(C)O3)C(O)C(C)O2)C(O)C(C)O1` (stereo partly drawn): the T/C was 104 % of control (dose: 0.13 mg/kg/injection, schedule: Q04DX003 (ip), vehicle: clinical formulation); 108 % of control (dose: 0.25 mg/kg/injection, schedule: Q04DX003 (ip), vehicle: clinical formulation); 100 % of control (dose: 125.0 micrograms/kg/injection, schedule: Q04DX003 (ip), vehicle: saline).
For the compound `CC[C@]1(O)C[C@H]2CN(CCc3c([nH]c4ccccc34)[C@@](C(=O)OC)(c3cc4c(cc3OC)N(C=O)[C@H]3[C@@](O)(C(=O)OC)[C@H](OC(C)=O)[C@]5(CC)C=CCN6CC[C@]43[C@@H]65)C2)C1`, the T/C reads like this: (dose: 0.13 mg/kg/injection, schedule: Q04DX003 (ip), vehicle: saline) 99 % of control and 110 % of control; under setting [2], 101 % of control and 110 % of control; under setting [3], 97 % of control and 102 % of control; under setting [4], 106 % of control and 121 % of control; under setting [5], 122 % of control.
Take `O=C(O)C1(C(=O)O)CCC1.[NH2-].[NH2-].[Pt+2]`: the T/C was 159 % of control (dose: 10.8 mg/kg/injection, schedule: Q01DX009 (ip), vehicle: water); 106 % of control (dose: 11.7 mg/kg/injection, schedule: Q04DX003 (ip), vehicle: water); 108 % of control under setting [6]; 175 % of control (dose: 18.0 mg/kg/injection, schedule: Q01DX009 (ip), vehicle: water); 106 % of control (dose: 19.4 mg/kg/injection, schedule: Q04DX003 (ip), vehicle: water); 114 % of control under setting [7]. Besides, the T/C (dose: 32.4 mg/kg/injection, schedule: Q04DX003 (ip), vehicle: water) was 164 % of control; the T/C (dose: 50.0 mg/kg/injection, schedule: Q04DX003 (ip), vehicle: saline) was 178 % of control; the T/C (dose: 54.0 mg/kg/injection, schedule: Q04DX003 (ip), vehicle: water) was 170 % of control and 215 % of control; the T/C (dose: 90.0 mg/kg/injection, schedule: Q04DX003 (ip), vehicle: water) is 103 % of control; the T/C (dose: 100.0 mg/kg/injection, schedule: Q04DX003 (ip), vehicle: saline) was 217 % of control.
Regarding `CCC1(O)CC2CN(CCc3c([nH]c4ccccc34)C(C(=O)OC)(c3cc4c(cc3OC)N(C)C3C(O)(C(N)=O)C(O)C5(CC)C=CCN6CCC43C65)C2)C1` (stereo not drawn) (tested in a mixture with another compound), the T/C was 92 % of control and 100 % of control under setting [2]; 106 % of control under setting [3]; 102 % of control under setting [4]; 115 % of control and 235 % of control under setting [5].
With `CO[C@H]1C[C@](C)(O)Cc2cc3c(c(O)c21)C(=O)c1c(O)cc2c(c1C3=O)O[C@@H]1O[C@@]2(C)[C@H](O)[C@@H](N(C)C)[C@@H]1O`, the T/C runs as follows: (dose: 7.5 mg/kg/injection, schedule: Q04DX003 (ip), vehicle: saline) 188 % of control; under setting [6], 189 % of control; (dose: 15.0 mg/kg/injection, schedule: Q04DX003 (ip), vehicle: saline) 319 % of control; under setting [7], 252 % of control; (dose: 30.0 mg/kg/injection, schedule: Q04DX003 (ip), vehicle: saline) 267 % of control; (dose: 60.0 mg/kg/injection, schedule: Q04DX003 (ip), vehicle: saline) 471 % of control.
Turning to `CN(Cc1cnc2nc(N)nc(N)c2n1)c1ccc(C(=O)N[C@@H](CCC(=O)O)C(=O)O)cc1`, the T/C runs as follows: (dose: 1.25 mg/kg/injection, schedule: Q04DX003 (ip), vehicle: sodium bicarbonate) 97 % of control; (dose: 2.5 mg/kg/injection, schedule: Q04DX003 (ip), vehicle: sodium bicarbonate) 110 % of control; (dose: 5.0 mg/kg/injection, schedule: Q04DX003 (ip), vehicle: sodium bicarbonate) 104 % of control and 111 % of control; (dose: 10.0 mg/kg/injection, schedule: Q04DX003 (ip), vehicle: sodium bicarbonate) 124 % of control; (dose: 20.0 mg/kg/injection, schedule: Q04DX003 (ip), vehicle: sodium bicarbonate) 93 % of control and 124 % of control; (dose: 40.0 mg/kg/injection, schedule: Q04DX003 (ip), vehicle: sodium bicarbonate) 156 % of control.
In the case of `NC(=O)c1cn(C2OC(CO)C(O)C2O)c2ncnc(N)c12` (stereo not drawn), the T/C is, setting by setting: (dose: 0.4 mg/kg/injection, schedule: Q04DX003 (ip), vehicle: saline with Tween-80) 107 % of control; (dose: 0.8 mg/kg/injection, schedule: Q04DX003 (ip), vehicle: saline with Tween-80) 173 % of control; (dose: 6.0 mg/kg/injection, schedule: Q04DX003 (ip), vehicle: saline with Tween-80) 182 % of control.
In the case of `COc1cc([C@@H]2c3cc4c(cc3[C@@H](OC3OC5COC(C)OC5C(O)C3O)[C@H]3COC(=O)[C@H]23)OCO4)cc(OC)c1O` (stereo partly drawn), the T/C (dose: 5.0 mg/kg/injection, schedule: Q04DX003 (ip), vehicle: saline) was 201 % of control; the T/C (dose: 6.25 mg/kg/injection, schedule: Q04DX003 (ip), vehicle: saline with Tween-80) was 224 % of control; the T/C (dose: 10.0 mg/kg/injection, schedule: Q04DX003 (ip), vehicle: saline) is 337 % of control; the T/C (dose: 12.5 mg/kg/injection, schedule: Q04DX003 (ip), vehicle: saline with Tween-80) is 247 % of control; the T/C (dose: 20.0 mg/kg/injection, schedule: Q04DX003 (ip), vehicle: saline) was 355 % of control; the T/C (dose: 25.0 mg/kg/injection, schedule: Q04DX003 (ip), vehicle: saline with Tween-80) was 337 % of control. Besides, the T/C was 355 % of control (dose: 40.0 mg/kg/injection, schedule: Q04DX003 (ip), vehicle: saline); 337 % of control under setting [1]; 355 % of control (dose: 80.0 mg/kg/injection, schedule: Q04DX003 (ip), vehicle: saline); 337 % of control (dose: 100.0 mg/kg/injection, schedule: Q04DX003 (ip), vehicle: saline with Tween-80).
Turning to `Nc1nc(=S)c2[nH]cnc2[nH]1`, the T/C reads like this: (dose: 0.5 mg/kg/injection, schedule: Q01DX009 (ip), vehicle: alkali diluted with saline) 194 % of control and 239 % of control; (dose: 1.0 mg/kg/injection, schedule: Q01DX009 (ip), vehicle: alkali diluted with saline) 194 % of control and 267 % of control; (dose: 2.0 mg/kg/injection, schedule: Q01DX009 (ip), vehicle: alkali diluted with saline) 194 % of control and 267 % of control; (dose: 4.0 mg/kg/injection, schedule: Q01DX009 (ip), vehicle: alkali diluted with saline) 194 % of control.
As for `COc1cccc2c1C(=O)c1c(O)c3c(c(O)c1C2=O)C[C@@](O)(C(C)=O)C[C@@H]3OC1CC(N(Cc2ccccc2)Cc2ccccc2)C(O)C(C)O1` (stereo partly drawn), the T/C runs as follows: (dose: 5.0 mg/kg/injection, schedule: Q04DX003 (ip), vehicle: saline with Tween-80) 96 % of control; (dose: 10.0 mg/kg/injection, schedule: Q04DX003 (ip), vehicle: saline with Tween-80) 109 % of control; (dose: 20.0 mg/kg/injection, schedule: Q04DX003 (ip), vehicle: saline with Tween-80) 177 % of control.
For `[Cl][Pt+2][Cl].[NH-]C1CCCC1.[NH2-]`, the T/C is, setting by setting: (dose: 1.04 mg/kg/injection, schedule: Q04DX003 (ip), vehicle: saline) 204 % of control; (dose: 1.73 mg/kg/injection, schedule: Q04DX003 (ip), vehicle: saline) 254 % of control; (dose: 2.88 mg/kg/injection, schedule: Q04DX003 (ip), vehicle: saline) 385 % of control; (dose: 4.8 mg/kg/injection, schedule: Q04DX003 (ip), vehicle: saline) 445 % of control; (dose: 8.0 mg/kg/injection, schedule: Q04DX003 (ip), vehicle: saline) 451 % of control.
